Measured values taken from patent US8536222B2, “Addition compounds of guanidinoacetic acid” (AlzChem AG, priority 2005, dated 2013).

Assays:
[1] = solubility in water; assay type: physicochemical; details: water at 20° C.
[2] = 1 g in water at 15° C.; cited from earlier work
[3] = test system: creatine content in muscles; details: rats, diets containing about 0.36 g/kg; cited from earlier work
[4] = test system: fattened chicken; assay: feed for fattened chicken, 42 day fattening period; assay type: in vivo; details: 0.2% by weight in air-dried feed
Method: • 2.1 A formulation consisting of 5000 mg guanidinoacetic acid malate and 5000 mg inulin was introduced into a typical formulation of feed pellets as a feed supplement for horses. • 2.2 A formulation consisting of 7000 mg guanidinoacetic acid lactate, 750 mg carnitine tartrate, 100 mg sucrose stearate, 160 mg talcum and 1090 mg fructose was introduced into the basic bulk for dog biscuits. • 2.3 The following formulation was introduced homogenously as a master batch into a commercially canned cat food mixture: 3000 mg guanidinoacetic acid citrate, 3000 mg creatine, 40 mg magnesium stearate, 25 mg carboxymethyl-cellulose and […] lactose. • 2.4 Feed for fattened chicken
In addition the consumption of feed decreased by about 6% compared to previous feeding methods.

Compound | dissolves in water [1] | solubility in water (ml water needed for 1 g) [2] | increase of creatine content in muscles compared to the comparison group [3] | decrease of consumption of feed compared to previous feeding methods [4] | increase of end weight compared to previous feeding methods without guanidinoacetic acid [4] | meat quality [4] | nature of the increase in weight [4]
N=C(N)NCC(=O)O [guanidinoacetic acid] | very poorly | 278 mL | 39% | – | – | – | –
N=C(N)NCC(=O)O.O=C(O)CCCCC1CCSS1 (stereo not shown) [guanidinoacetic acid lipoate] | – | – | – | about 6% | 5% | improved quality | solely by a meat increase
